Measured values: the METLIN SMRT retention time set (Domingo-Almenara et al. 2019)

Experiment: gradient 5% acetonitrile 3 min, to 50% in 2 min, to 85% in 15 min, held 3 min, 100 µL/min
Conditions: column: Zorbax Extend-C18 2.1 x 50 mm; eluents: water / acetonitrile, 0.1% formic acid
Method in brief: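 Retention times of pure standards were taken from adduct peaks that were selected by computer and manually inspected. Over 3 months, mixtures of ~100 molecules were run by HPLC–quadrupole time-of-flight mass spectrometry in positive and negative ionization mode. The Zorbax Extend-C18 column (2.1 × 50 mm, 1.8 μm) ran at 100 μL/min in water and acetonitrile, each containing 0.1% formic acid, with 40 μL dead volume and 900 μL dwell volume.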

SMILES	RP-LC retention time
COc1cccc(-n2nnc(C(=O)O)c2C(C)C)c1	734 s
CC(C)CNC(=O)C1CCN(C(=O)c2ncn3c2COC(c2ccccc2)C3)CC1 (stereo unspecified)	702 s
COCCNc1c(-c2ccccc2)nc2sc(C(=O)N3CCOCC3)c(C)n12	722 s
CCNC(=O)C1CCCN(c2nc3ncn(CC(=O)Nc4ccc(F)cc4F)c(=O)c3s2)C1 (stereo unspecified)	670 s
CCCN(CC1CCOC1)C(=O)Nc1ccc(Cl)cc1F (stereo unspecified)	853 s
Cc1cccc(-c2noc(C3CC(=O)N(c4ccc5c(c4)OCO5)C3)n2)c1 (stereo unspecified)	978 s
CCn1c(=O)n(Cc2ccccc2C(F)(F)F)c2cncnc21	834 s
Cc1ccc(CCNC(=O)CN2C(=O)C3CCCCN3c3ccc(S(=O)(=O)N(C)C)cc32)cc1 (stereo unspecified)	943 s
COc1ccc(CNC(=O)C2(C)CCN(C(=O)Nc3cc(OC)c(OC)c(OC)c3)CC2)cc1	733 s
Cc1ccc(NC(=O)c2ccc(CN3CCN(C)CC3)cc2)cc1Nc1nc(-c2cccnc2)cs1	618 s
CC(=O)N1CCc2cc(C)c(S(=O)(=O)NCc3ccco3)cc21	742 s
Cc1ccnc(N2CCC(C(=O)NC3CCCCC3)CC2)n1	669 s
COc1ccc(OC)c2sc(NC(=O)c3cc(C)on3)nc12	748 s
COc1ccc(-c2cc(C(=O)NCCc3c[nH]c4ccccc34)[nH]n2)cc1	814 s
CCN1N=C(C(=O)N2CCOCC2)S(=O)(=O)c2cc(Cl)ccc21	760 s
Cc1cnc(C2CC2)n1C1CCCN(S(=O)(=O)Cc2ccccc2)C1 (stereo unspecified)	637 s
O=C(NCc1ccc(Cl)cc1)NCC(O)Cc1ccccc1 (stereo unspecified)	721 s
O=C(Nc1ccccc1)c1nnc(CCC(=O)N2CCN(c3ccccn3)CC2)s1	617 s
Cc1cc(C)cc(Oc2nccn3c(=O)n(CC(=O)Nc4cc(C)ccc4C)nc23)c1	974 s
O=C(CCCc1nnc2c(=O)n(-c3ccc(Cl)cc3)ccn12)N1CCN(c2ccccn2)CC1	595 s
Cc1nc(C)c(C(=O)N2CCC(c3noc(-c4cnccn4)n3)C2)s1 (stereo unspecified)	632 s
CCc1cccc2cc([C@@H](O)CNC(C)(C)C)oc12	737 s
CCCN1C(=O)COc2cc(-c3noc(C(=O)NCC4CCCO4)n3)ccc21 (stereo unspecified)	841 s

SMILES	RP-LC retention time
COc1cccc(-c2noc(Cn3nc(-c4ccc5c(c4)OCO5)ccc3=O)n2)c1	957 s
COc1ccc(-c2coc3cc(OCc4ccc([N+](=O)[O-])cc4)ccc3c2=O)cc1OC	991 s
COc1ccc(NC(=O)Cc2nnc(-c3ccc4ncccc4c3)o2)cc1	685 s
COCCCNC(=O)N1CCCCCC1c1cccc(C)c1 (stereo unspecified)	910 s
CC(=O)NC(C)c1nc(-c2ccccc2Cl)no1 (stereo unspecified)	687 s
COc1ccc(-c2cc3c4nnc(CCC(=O)NCc5ccco5)n4ccn3n2)cc1	665 s
CCC(C)n1nnc2cc(S(=O)(=O)N(C)CC(=O)NCCc3c[nH]c4ccccc34)ccc21 (stereo unspecified)	885 s
O=C(NCc1ccco1)C1CCN(C(=O)c2ncn3c2COC(c2ccc(Cl)cc2)C3)CC1 (stereo unspecified)	753 s
Cc1nc(-c2cn(C(C)C)c3ncccc23)sc1C(=O)N1CCCCC1C (stereo unspecified)	1030 s
CC1CCN(S(=O)(=O)c2ccc(-c3nnc(C(=O)N4CCCC4)o3)cc2)CC1	941 s
CCOc1ccccc1OCc1nn2c(CSc3ccccc3)nnc2s1	1000 s
Cc1cc(F)cc2c(=O)c3c([nH]c12)CCN(CC(=O)Nc1ccc(F)c(Cl)c1)C3	664 s
COc1ncccc1CNC(=O)NC1CCCCC1	713 s
COCc1noc(C2CCCCCN2C(=O)NC(C)C)n1 (stereo unspecified)	730 s
CCNC(=O)C1CCCN(c2nc3ncn(CC(=O)NC4CCCC4)c(=O)c3s2)C1 (stereo unspecified)	637 s
CCc1cc(=O)n(CC(=O)Nc2cccc(C)c2C)c(N2CCOCC2)n1	764 s
Cc1cc(C)cc(-c2nnc(Cc3nc(-c4ccncc4)no3)o2)c1	886 s
COc1ccc(-c2csc(NC(=O)Nc3c(F)cccc3F)n2)cc1OC	770 s
COc1ccc(NS(=O)(=O)c2cc3n(c2)CCN(C(C)C)C3=O)cc1Cl	775 s
CNC(=O)C1CCCN(c2nc3ncn(CC(=O)Nc4ccc(F)cc4)c(=O)c3s2)C1 (stereo unspecified)	634 s
CCCNC(=O)C(=O)NCc1n[nH]c(=O)c2ccccc12	627 s
O=C(NCC1CCCO1)c1csc(N2CCN(c3ccc(F)cc3)CC2)n1 (stereo unspecified)	902 s
CCCCN(CC)C(=O)c1cc2c(=O)n3ccccc3nc2n1C	813 s

SMILES	RP-LC retention time
c1cc(-c2noc(C3CC3)n2)cc(N2CCOCC2)n1	695 s
COc1ccc(NC(=O)N(C)CCc2noc(COc3ccccc3F)n2)c(OC)c1	877 s
Cc1cccc(-c2nc3nc(C)cc(N(CCO)Cc4ccccc4)n3n2)c1	815 s
CCNc1nc(NCC)n2c(SCC(=O)Nc3ccccc3[N+](=O)[O-])nnc2n1	623 s
CN(C1CCc2nn(CC3CC3)c(=O)n2CC1)S(=O)(=O)c1cccc(F)c1 (stereo unspecified)	777 s
CCCCc1ccc(N2C=C(C#N)S(=O)(=O)c3ccccc32)cc1	1150 s
CCCCOc1ccc(C(=O)N2CCN(c3cc(C)nc(N4CCCCC4)n3)CC2)cc1	816 s
O=C(NC(c1ccccc1)c1nnc(N2CCOCC2)o1)c1cccc(F)c1 (stereo unspecified)	758 s
CCN1CCN(c2cc(-c3nc(-c4cccc(F)c4)no3)c3ccccc3n2)CC1	821 s
CCOc1cccc(C2c3[nH]c4ccccc4c3CCN2C(=O)COC)c1 (stereo unspecified)	983 s
C=Cc1ccc(CSc2nnc3c(S(=O)(=O)N4CCCC4)cccn23)cc1	884 s
NC(=O)C1CCN(C(=O)CN2CCN(c3ccccc3F)CC2)CC1	580 s
CCc1ccc(OCC(=O)N2CCCCC2CCN2CCCCC2)cc1 (stereo unspecified)	703 s
CN1C(=O)c2cccnc2Sc2cc(NC(=O)c3ccccc3C(F)(F)F)ccc21	799 s
C[C@H](NC(=O)C1CCCN(S(=O)(=O)c2ccc(F)cc2)C1)C(=O)O (stereo partly specified)	669 s
Cc1nn(-c2ccccc2)cc1C(=O)N1CCC(CC(=O)NC2CC2)CC1	667 s
COc1ccc(OC)c(-c2cc(C(=O)N3CCC(C(=O)NCC(F)(F)F)CC3)[nH]n2)c1	705 s
CCC(=O)N(C1CCOCC1)C1CCN(S(=O)(=O)c2ccccc2Cl)CC1	840 s
Cc1ccc2c(c1)N(C(=O)Cn1ccn3nc(-c4ccccc4)c(CO)c3c1=O)CCO2	908 s
O=C(NCc1cccs1)C1CCN(CCc2c[nH]c3ncccc23)CC1	563 s
COc1ccc2cc(C(=O)Nc3ccc(F)cc3)[nH]c2c1	910 s
Cc1ccc(C)c(S(=O)(=O)Nc2ccc3scnc3c2)c1	776 s
CN(C)c1ccc(NC(=O)COc2ccc(-c3nnc4n3CCCC4)cc2)cc1	585 s

SMILES	RP-LC retention time
Cc1nc2cc(-c3noc(-c4ccco4)n3)ccc2n(C2CCCC2)c1=O	927 s
Cc1ccc(NC(=O)Cn2nc3cc(C)nc(N4CCCC4)n3c2=O)c(C)c1	791 s
CCN1CCN(c2cc(C)c3cc(NC(=O)CC4CCCCC4)ccc3n2)CC1	594 s
Cc1cc2nc(C(=O)Nc3ccc(F)c(C)c3)cc(C)n2n1	1010 s
O=C1OC(C(=O)Nc2ccc(F)cc2)Cc2ccc(Cl)cc21 (stereo unspecified)	858 s
COc1ccc(CC(=O)Nc2nnc(-c3ccsc3)o2)cc1OC	655 s
CCn1ncc(NC(=O)CCc2ccccc2)c(N2CCOCC2)c1=O	800 s
Cc1ccc(Nc2c(-c3cccc(Cl)c3)nc3ccccn23)cc1	780 s
COc1cccc(-c2noc(Cc3nnc(-c4cccc(C)c4)o3)n2)c1OC	961 s
CC1(C)CC(NC(=O)c2cccc(Br)c2)CC(C)(C)N1	620 s
COc1ccc(C)c(N2C(=O)CC(N3CCC(C(N)=O)CC3)C2=O)c1 (stereo unspecified)	586 s
COCCCNCc1c(C(=O)O)c(C)n(Cc2ccccc2Cl)c1C	688 s
CCCNC(=O)N(C1CCOCC1)C1CCN(C(=O)c2ccc3ccccc3n2)CC1	707 s
CCCNC(=O)C1CCCN(c2nc3ncn(CC(=O)Nc4ccc(C)cc4C)c(=O)c3s2)C1 (stereo unspecified)	703 s
CCOC(=O)C(=O)Cc1nc2ccccc2s1	871 s
CCOc1ccc(CC(=O)N2C[C@@H]3C[C@H](NC(=O)c4cccnc4)[C@H]2C3)cc1	645 s
CCOc1ccc(Nc2nc(-c3c(C)nc4ccccn34)cs2)cc1	722 s
O=C(CCCNC(=O)c1cc(-c2cccs2)[nH]n1)Nc1cccc2cccnc12	697 s
COc1cc(OC)cc(C(=O)NC2CCN(c3cc(-c4cccs4)[nH]n3)C2)c1 (stereo unspecified)	741 s
Cc1cnc(C2CC2)n1C1CCN(Cc2ccc(F)cc2F)C1 (stereo unspecified)	559 s
COc1ccc(Cn2c(=O)c3sccc3n(Cc3nc(-c4ccc(SC)cc4)no3)c2=O)cc1	1160 s
CCCCn1cc(S(=O)(=O)Nc2ccc(Cl)cc2F)c2cccnc21	1020 s
